Consider 12 compounds from patent publication US11401278B2, “Macrocyclic indole derivatives” (The Broad Institute, Inc., priority 2017, dated 2022).

Counter-ions that a name gives are not always drawn. Like-named read-outs stand apart in the source and are kept apart here.

For data set [1] the following is noted: amine bond, 60.0 °C.
The next data set deals with MCL-1 (Homo sapiens (Human), UniProt Q07820, K194A/K197A/R201A). Put plainly: Protein-protein interaction assay MCL-1/Noxa BH3 peptide (MCL-1 assay, TR-FRET). To be noted: MBP-MCL-1 / Noxa BH3 peptide, median. Format: binding. The protocol:
Protein-Protein Interaction Assay: MCL-1/Noxa BH3 Peptide (MCL-1 Assay)
The dose-dependent inhibition by the compounds described in this invention of the interaction between MCL-1 and the BH3 domain of Noxa (both human) was determined using a steady state binding competition assay with time-resolved fluorescence energy transfer (TR-FRET) readout. For that purpose MCL-1 (amino acids 173-329, N-terminal fused to Maltose Binding Protein (MBP) SEQ ID 1) and a synthetic Noxa BH3-derived peptide of sequence Biotin-PEG2-PEG2-PAELEVE-Nva-ATQLRRFGDKLNFRQKLL-amide (SEQ ID 2) served as protein receptor and tracer ligand respectively. The MBP-MCL-1 was purchased from Beryllium (Bedford, Mass., USA). The expression and purification of this protein construct has been described elsewhere (DOI:10.1371/journal.pone.0125010). The Noxa BH3-derived peptide can be obtained from e.g. Biosyntan (Berlin, Germany).
In the assay 11 different concentrations of each compound (0.1 nM, 0.33 nM, 1.1 nM, 3.8 nM, 13 nM, 44 nM, 0.15 μM, 0.51 μM, 1.7 μM, 5.9 μM and 20 μM) were typically measured as duplicates in the same microtiter plate. For that, 100-fold concentrated DMSO solutions were prepared by serial dilutions (1:3.4) of a 2 mM stock solution in a clear, 384-well microtiter plate (Greiner Bio-One, Frickenhausen, Germany). From there, 50 nl were transferred in a dark test plate (Greiner Bio-One, Frickenhausen, Germany). The assay was initiated by addition of 2 μl of a 2.5-fold concentrated MBP-MCL-1 solution (usually for a 1 nM end concentration in 5 μl reaction volume) in aqueous assay buffer [50 mM Tris/HCl pH 7, 100 mM sodium chloride (NaCl), 50 mM potassium fluoride (KF), 0.005% Tween-20, 2 mM DTT, 0.1% bovine gamma globulin (BGG)] to the compounds in the assay plate. This was followed by a 10-minute incubation step at 22° C. for pre-equilibration of the putative complex between MBP-MCL-1 and the compounds. After that, 3 μl of a 1.67-fold concentrated solution (in assay buffer) consisting of Noxa BH3-derived peptide (1 nM end concentration) and TR-FRET detection reagents [1.67 nM anti-MBP-Eu cryptate and 1.67 nM streptavidin-XL665 (both from Cisbio Bioassays, Codolet, France)], were added.
The mixture was incubated in the dark for one hour at 22° C. and then overnight at 4° C. The formation of MCL-1/Noxa complexes was determined by measuring the resonance energy transfer of the anti-MBP-Eu-cryptate antibody to the streptavidin-XL665 present in the reaction. For that purpose, the fluorescence emission at 620 nm and 665 nm after excitation at 330-350 nm was measured in a TR-FRET measuring instrument, for instance a Rubystar or a Pherastar (both from BMG Lab Technologies, Offenburg, Germany) or a Viewlux (Perkin-Elmer). The ratio of the emission at 665 nm and at 622 nm was used as indicator of the amount of MCL-1/NOXA complexes present.
The resulting data (ratio) were normalized, taking 0% inhibition as the mean value of control measurements (usually 32 data points) where all reagents were included. In this case 50 nl DMSO were used instead of compounds. A 100% inhibition corresponded to the mean value of control measurements (usually 32 data points) where all reagents except MCL-1 were included. IC50 values were determined by regression analysis based on a 4 parameter equation (minimum, maximum, IC50, Hill; Y=Max+(Min−Max)/(1+(X/IC50)^HiII) using the Screener Software (Genedata).
In general terms: In TR-FRET formats the signal depends on donor and acceptor labels being close together.

Data set [2] has as its system SUDHL5. Put plainly: Induction of caspase-3/7 activity (Assay 4), SUDHL5. Format: cell-based. As to conditions: caspase-3/7 induction, 3 hours, median. On the procedure:
(§1) Cellular Assays Assay 4 Induction of Caspase-3/7 Activity Upon Treatment of Cells with Selected Compounds
(§2) The BH3-domain of MCL-1 sequesters pro-apoptotic proteins, thereby inhibiting apoptosis. In contrast, MCL-1 inhibitors are expected to antagonize this effect leading to an increase in apoptosis, which can be determined by measuring the activity of caspase-3/7.
(§3) The activity of caspase-3/7 was determined in DLBCL (Diffuse large B-cell lymphoma) cell lines (SUDHL5 and SUDHL10) upon treatment with different compounds, using the Caspase-Glo® 3/7 reagent from Promega (G8092).
(§4) Rim wells were excluded. The cells were incubated for 3 hours in a humidified incubator at 37° C.
(§5) For the evaluation of the results, the background measured with “medium-only” was subtracted from all other values. […] The Bella DRC Master Sheet was used to calculate EC50s, with fixed C0=1 and CI=plateau/max induction for the reference compound.

In data set [3] the test system is SUDHL10. Put plainly: Induction of caspase-3/7 activity (Assay 4), SUDHL10. Format: cell-based. As to conditions: caspase-3/7 induction, 3 hours, median. On the procedure:
as §1, §2, §3, §4, §5

The subject of data set [4] is SUDHL5. Nature of the data set: Antiproliferation assay (Assay 7), SUDHL5. In kind it is cell-based. As to conditions: CellTiter-Glo, 72 hours, median, read-out: Antiproli SUDHL5 [M] (median) IC50. The protocol: (§6) Assessment of the Anti-Proliferative Effect of Compounds in Different Cell Lines
(§7) The impact of compounds on the proliferation of different cell lines was assessed using the CellTiter-Glo® Luminescent Cell Viability reagent from Promega (G7573).
(§8) In parallel, cells were plated in a reference (day 0) plate for time zero determination.
(§9) Rim wells were excluded. The cells were incubated for 72 hours in a humidified incubator at 37° C. The day 0 plate was measured by adding 30 μL/well of CTG solution (CellTiter-Glo® Luminescent Cell Viability reagent, Promega G7573) to time zero wells in the reference plate followed by a 10 minutes incubation and luminescence reading at 0.1 ms. using the PHERAstar FS microplate reader (BMG Labtech).
(§10) After 72 hours incubation, the treated plates were measured in the same way as the day 0 plate mentioned above.
A general note: Cellular ATP, detected with luciferase, serves as a proxy for viable cell number.

The next data set relates to AMO-1. Nature of the data set: Antiproliferation assay (Assay 7), AMO-1. Format: cell-based. To be noted: CellTiter-Glo, 72 hours, several values per example, read-out: Antiproli AMO-1 [M] IC50. On the procedure:
as §6, §7, §8, §9, §10

The next data set concerns HMC-1-8. Nature of the data set: Antiproliferation assay (Assay 7), HMC-1-8. As to conditions: CellTiter-Glo, 72 hours, several values per example, read-out: Antiproli HMC-1-8 [M] IC50. Format: cell-based. On the procedure: as §6, §7, §8, §9, §10
The subject of data set [5] is SUDHL5. Put plainly: Induction of cytotoxicity (Assay 6), SUDHL5. As to conditions: read-out: Cytotox SUDHL5 [M] (median) IC50, CellTiter-Glo, 5 hours, SUDHL5.
Data set [6] has as its system SUDHL10. Put plainly: Induction of cytotoxicity (Assay 6), SUDHL10. As to conditions: read-out: Cytotox SUDHL10 [M] (median) IC50, CellTiter-Glo, 5 hours, SUDHL10.

Chain of MCL-1 (Q07820 whole entry K194A/K197A/R201A, looked up): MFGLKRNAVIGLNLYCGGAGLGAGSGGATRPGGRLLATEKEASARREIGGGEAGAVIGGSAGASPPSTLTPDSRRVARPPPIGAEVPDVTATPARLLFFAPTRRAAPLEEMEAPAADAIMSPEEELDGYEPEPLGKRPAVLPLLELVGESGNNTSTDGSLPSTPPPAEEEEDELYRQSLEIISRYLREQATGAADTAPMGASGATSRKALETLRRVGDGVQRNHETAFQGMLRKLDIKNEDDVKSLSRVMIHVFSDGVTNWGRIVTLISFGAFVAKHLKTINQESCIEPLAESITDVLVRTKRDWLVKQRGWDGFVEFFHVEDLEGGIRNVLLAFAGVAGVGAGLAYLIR

The compound `CCOC(=O)c1c(CCCO[Si](C)(C)C(C)(C)C)c2ccc(F)c3c2n1CCCS(=O)(=O)N(C)Cc1nn(C)c(CC)c1-3` showed a ring closure, yield of all isomers in [1] (from CCOC(=O)c1[nH]c2c(-c3c(CN(C)S(=O)(=O)CCCCl)nn(C)c3CC)c(F)ccc2c1CCCO[Si](C)(C)C(C)(C)C, Cs2CO3, acetonitrile, 50.0 mM, 72.0 h) of 55.2%.
Turning to `CCOC(=O)c1c(CCCOc2cccc3ccccc23)c2cccc3c2n1CCCS(=O)(=O)N(C)C(C)c1nn(C)c(CC)c1-3` (racemic), the ring closure, yield of all isomers in [1] (from CCOC(=O)c1[nH]c2c(-c3c(C(C)N(C)S(=O)(=O)CCCCl)nn(C)c3CC)cccc2c1CCCOc1cccc2ccccc12, Cs2CO3, MeCN, 50.0 mM, 18.0 h) was determined as 81.9%.
Compound `CCOC(=O)c1c(CCCO[Si](C)(C)C(C)(C)C)c2ccc(Cl)c3c2n1CCCS(=O)(=O)N(C)Cc1nn(C)c(CC)c1-3` returned a ring closure, yield of all isomers in data set [1] (from CCOC(=O)c1[nH]c2c(-c3c(CN(C)S(=O)(=O)CCCCl)nn(C)c3CC)c(Cl)ccc2c1CCCO[Si](C)(C)C(C)(C)C, Cs2CO3, MeCN, 50.0 mM, 18.0 h) of 74.6%.
In data set [1] (from CCOC(=O)c1[nH]c2c(-c3c(CN(C)S(=O)(=O)CCCCl)nn(C)c3C)c(F)ccc2c1CCCO[Si](C)(C)C(C)(C)C, Cs2CO3, NaI, acetonitrile, 87.3 mM, 240.0 h), `CCOC(=O)c1c(CCCO[Si](C)(C)C(C)(C)C)c2ccc(F)c3c2n1CCCS(=O)(=O)N(C)Cc1nn(C)c(C)c1-3` registered a ring closure, yield of all isomers of 47.7%.
Take `CCOC(=O)c1c(CCCOc2cccc3cc(F)ccc23)c2ccc(Cl)c3c2n1CCCS(=O)(=O)N(C)C(CCN1CCOCC1)c1nn(C)c(C)c1-3` (centres unmarked): in [1] (from CCOC(=O)c1[nH]c2c(-c3c(C(CCN4CCOCC4)N(C)S(=O)(=O)CCCCl)nn(C)c3C)c(Cl)ccc2c1CCCOc1cccc2cc(F)ccc12, cesium carbonate, acetonitrile, 37.4 mM, 48.0 h), the ring closure, yield of all isomers stood at 82%.
In data set [1] (from CCOC(=O)c1[nH]c2c(-c3c(CN(C4CC4)S(=O)(=O)CCCCl)nn(C)c3CC)c(Cl)ccc2c1CCCOc1cccc2cc(F)ccc12, cesium carbonate, acetonitrile, 47.2 mM, 16.0 h), `CCOC(=O)c1c(CCCOc2cccc3cc(F)ccc23)c2ccc(Cl)c3c2n1CCCS(=O)(=O)N(C1CC1)Cc1nn(C)c(CC)c1-3` had a ring closure, yield of all isomers of 91%.
With `CCOC(=O)c1c(CCCOc2cccc3ccccc23)c2cccc3c2n1CCCS(=O)(=O)N(CCCN1CCCC1=O)Cc1nn(C)c(CC)c1-3`, in data set [1] (from CCOC(=O)c1[nH]c2c(-c3c(CN(CCCN4CCCC4=O)S(=O)(=O)CCCCl)nn(C)c3CC)cccc2c1CCCOc1cccc2ccccc12, NaH, DMF, 25.1 mM, 22.0 h), the ring closure, yield of all isomers came to 80.5%.
In the case of `CCOC(=O)c1c(CCCOc2cccc3cc(F)ccc23)c2ccc(Cl)c3c2n1CCCS(=O)(=O)N(CC)Cc1nn(C)c(CC)c1-3`, the ring closure, yield of all isomers in [1] (from CCOC(=O)c1[nH]c2c(-c3c(CN(CC)S(=O)(=O)CCCCl)nn(C)c3CC)c(Cl)ccc2c1CCCOc1cccc2cc(F)ccc12, cesium carbonate, acetonitrile, 50.9 mM, 48.0 h) came to 73%.
As to `CCc1c2c(nn1C)CN(C1CC1)S(=O)(=O)CCCn1c(C(=O)O)c(CCCOc3cccc4cc(F)ccc34)c3ccc(Cl)c-2c31` (single isomer, unassigned; enantiomer 2) [Example 55, (+)-4-chloro-14-cyclopropyl-3-ethyl-7-{3-[(6-fluoronaphthalen-1-yl)oxy]propyl}-2-methyl-13,13-dioxo-10,11,12,13,14,15-hexahydro-2H-13lambda^6-pyrazolo[3′,4′:4,5][1,2,8]thiadiazacycloundecino[6,7,8-hi]indole-8-carboxylic acid N-ethylethanamine Salt (Enantiomer 2)], the IC50 against MCL-1 was 0.016 µM; in the data set with SUDHL5 [4] it was 1.1e-05 M; in the data set on AMO-1, greater than 3.3e-05 M; in the data set with HMC-1-8, 2.1e-05 M; in the data set on SUDHL5 [5], 8.2e-06 M; in the data set with SUDHL10 [6], 1.3e-05 M. The EC50 in the data set on SUDHL5 [2] turned out to be 8.9 µM; with SUDHL10 [3], 13 µM.
Take `CCOC(=O)c1c(CCCOc2cccc3ccccc23)c2cccc3c2n1CCCS(=O)(=O)N(C)C(CCN1CCOCC1)c1nn(C)c(C)c1-3` (centres unmarked): the ring closure, yield of all isomers in data set [1] (from CCOC(=O)c1[nH]c2c(-c3c(C(CCN4CCOCC4)N(C)S(=O)(=O)CCCCl)nn(C)c3C)cccc2c1CCCOc1cccc2ccccc12, Cs2CO3, acetonitrile, 49.6 mM, 48.0 h) is 99.7%.
For `CCOC(=O)c1c(CCCO[Si](C)(C)C(C)(C)C)c2ccc(Cl)c3c2n1CCCS(=O)(=O)N(C1CC1)Cc1nn(C)c(C)c1-3`, the ring closure, yield of all isomers in data set [1] (from CCOC(=O)c1[nH]c2c(-c3c(CN(C4CC4)S(=O)(=O)CCCCl)nn(C)c3C)c(Cl)ccc2c1CCCO[Si](C)(C)C(C)(C)C, Cs2CO3, acetonitrile, 50.4 mM, 48.0 h) was 60%.
`CCc1c2c(nn1C)C(N1CCOCC1)CCN(C)S(=O)(=O)CCCn1c(C(=O)O)c(CCCOc3cccc4cc(F)ccc34)c3ccc(Cl)c-2c31` (single isomer, unassigned; enantiomer 1) [Example 70, (+)-4-chloro-3-ethyl-7-{3-[(6-fluoro-1-naphthyl)oxy]propyl}-2,14-dimethyl-17-(morpholin-4-yl)-11,12,14,15,16,17-hexahydro-2H,10H-pyrazolo[3′,4′:6,7][1,2,10]thiadiazacyclotridecino[8,9,10-hi]indole-8-carboxylic acid 13,13-dioxide trifluoroacetate salt (Enantiomer 1)]: the IC50 against MCL-1 was found to be 0.086 µM; in the data set with SUDHL5 [4], 4e-06 M; in the data set on AMO-1, 7.3e-06 M; in the data set with HMC-1-8 it was 1.5e-05 M; in the data set with SUDHL5 [5], 2.6e-06 M; in the data set with SUDHL10 [6], 4.7e-06 M. In addition, the EC50 came to 2.6 µM with SUDHL5 [2] and 4.4 µM in the data set on SUDHL10 [3].

Broadly, the IC50 is the concentration that inhibits the measured activity by half. The term EC50 denotes the concentration at which the effect is half-maximal. A higher EC50 goes with a need for much substance.
